The values below come from patent US6828450B2, “Triptycene analogs” (Kansas State University Research Foundation, priority 2000, dated 2004).

Series [1] has as its system L1210 cells. Put plainly: cells. Particulars: for inhibitory effect on L1210 cell viability: 256 nM, 4 days; for cytotoxicity at 0.041 µM: read-out: % inhibition of L1210 cell viability. The protocol:
FIG. 1. […] For tumor cell growth and viability, L1210 cells were respectively seeded in triplicate at initial densities of 1×10^4 and 1.11×10^4 cells/0.5 ml/well in RPMI 1640 medium containing 7.5% FCS and penicillin (100 IU/ml)-streptomycin (100 μg/ml), and grown for 4 days in the presence or absence (control) of 256 nM concentrations of the indicated compounds in a humidified incubator at 37° C. with 5% CO2 in air. Cell density was monitored using a Coulter counter. […] The ability of viable cells/0.5 ml to bioreduce 0.1 ml of MTS:PMS (20:1) reagent over a 3-h incubation period at 37° C. was assessed by measuring the absorbamce of the water-soluble formazan products at A490 nm.
FIG. 4. […] Cells were seeded in triplicate at initial densities of 100,000 or 11,100 cells/0.5 ml/well and respectively incubated for 2 or 4 days in the presence or absence (control) of the indicated concentrations of drugs, which are plotted on a logarithmic scale. The ability of viable cells/0.5 ml to bioreduce 0.1 ml of MTS:PMS (20:1) reagent over a 3-h incubation period was assessed as described in FIG. 1.
TT0 was purchased from Aldrich (Milwaukee, Wis.). All solutions of synthetic TTs and tricyclic pyrone H10, vincristine (VCR; a gift from Lilly Researeh Laboratories, Indianapolis, Ind.) and camptothecin (CPT; from Sigma Chemical Co., St Louis, Mo.) were dissolved and diluted in dimethyl sulfoxide (DMSO), whereas daunomycin (DAU) (from Sigma) solutions were prepared in 0.1 M potassium phosphate buffer, pH 7.4, containing 0.9% NaCl. Suspension cultures of murine L1210 lymphocytic leukemia cells (American Type Culture Collection, Rockville, Md.) were maintained in continuous exponential growth by twice-a-week passage in RPMI 1640 medium supplemented with 7.5% fortified bovine calf serum (FCS; HyClone Laboratories, Logan, Utah) and penicillin (100 IU/ml)-streptomycin (100 μg/ml), and incubated in the presence or absence of drugs at 37° C. in a humidified atmosphere containing 5% CO2. […] Control cells incubated in the absence of drugs were similarly treated with vehicle only and, in every experiment, all incubates received the same volume of solvent. For drug removal, incubates were spun at 200×g for 10 min, drug-containing supernatants were discarded, and intact cells were washed thrice with 1 ml of the above RPMI 1640 culture medium and resuspended in 0.5 ml of fresh medium for further incubation.
L1210, HL-60-S, HL60-RV and HL-60-R8 cells suspended in FCS-containing RPMI 1640 medium were grown in 48-well Costar cell culture plates for up to 4 days in the presence or absence of drugs to evaluate drug cytotoxicity.

For series [2], the system named is L1210 cells. As to the kind of experiment: DNA synthesis (3H-thymidine incorporation) in L1210 cells. In kind it is cell-based, murine. The settings on record: for concentration at which the drug becomes effective against DNA synthesis: 2-h treatment. On the procedure: FIG. 9. […] Cells (1.14×10^6/0.5 ml of RPMI 1640 medium) were incubated at 37° C. for 90 min in the presence or absence (control) of the indicated concentrations of drugs, which are plotted on a logarithmic scale, and then pulse-labeled for an additional 30 min to determine the rate of ^3H-thymidine incorporation into DNA.
FIG. 11. […] The cellular uptake of ^3H-thymidine (striped) and the rate of ^3H-thymidine incorporation into DNA (open) were determined in cells (1.38×10^6/0.5 ml of RPMI 1640 medium) respectively preincubated at 37° C. for 15 or 90 min in the presence or absence (control) of 7 μM concentrations of the indicated compounds. For the cellular transport of nucleosides, preincubated cells were then exposed to 1 μCi of ^3H-thymidine for 30 sec at 37° C. […] For DNA synthesis, preincubated cells were then pulse-labeled with 1 μCi of ^3H-thymidine for an additional 30 min at 37° C.
FIG. 12. […] The cellular uptake of ^3H-thymidine (striped) and the rate of ^3H-thymidine incorporation into DNA (open) were determined in cells (1.64×10^6/0.5 ml of RPMI 1640 medium) respectively preincubated at 37° C. for 15 or 60 min in the presence or absence (control) of 10 and 25 μM TT2 or 25 μM H10. […] After preincubation, vehicle-treated controls were similarly spun and washed. For the cellular transport of nucleosides, preincubated cells were then exposed, in the presence (+) or absence (−) of TT2 or H10, to 1 μCi of ^3H-thymidine for 30 sec at 37° C. […] For DNA synthesis, preincubated cells were then pulse-labeled with 1 μCi of ^3H-thymidine for an additional 30 min at 37° C. in the presence (+) or absence (−) of TT2 or H10. […] Bars: means±SD (n=3).
For nucleic acid and protein syntheses, L1210 cells were resuspended in fresh FCS-containing RPMI 1640 medium at a density of about 1.1-1.6×10^6 cells/0.5 ml. To estimate the rate of DNA synthesis, HL-60-S, HL-60-RV and HL-60-R8 cells were resuspended in fresh FCS-containing RPMI 1640 medium at a density of 5×10^5 cells/0.5 ml.
A general note: Uptake of a labelled nucleoside into DNA is a usual measure of proliferation.

[3] abbreviates: read-out: IC50 (concentration inhibiting by 50% the viability of L1210 leukemic cells), day 4, Table 2 series.

Several values for one entry are separate records, joined by “and”; a condition that tells them apart may be missing. Equal entries are not always repeated. Where two headings read alike, the source gives them in different places.

In the case of `COC(=O)C1=C(C(=O)OC)C[C@H]2[C@@H](C1)[C@@H](O)C1=C(C3C4=C(C1c1ccccc13)[C@@H](O)[C@H]1CC(C(=O)OC)=C(C(=O)OC)C[C@H]1[C@H]4O)[C@H]2O` [TT12, (4aS*,5S*,7R*,12S*,14R*,7aR*,11aS*,14aR*)-Tetramethyl 1,4,4a,5,6,7,7a,8,11,11a,12,13,14,14a-tetradecahydro-5,7,12,14-tetrahydroxy-6,13-[1′,2′]benzenopentacene-2,3,9,10-tetracarboxylate], in the series with L1210 cells [1], the “inhibitory effect on L1210 cell viability” value is “inactive”. Also, in the series with L1210 cells [2] (7 μM, 2 h), the “effect on DNA synthesis” value is given as “alter neither”.
As for `COC1=CC(=O)C2=C(C1=O)C1C3=C(C(=O)C=CC3=O)C2c2ccccc21` (stereo not drawn) [TT2, 2-Methoxy-9,10-dihydro-9,10-[1′,2′]benzenoanthracene-1,4,5,8-tetraone], the IC50 was 270 nM with L1210 cells [1] (setting [3]); 250 nM in the series with L1210 cells [1] (read-out: IC50, inhibition of L1210 cell viability, day 2); 100 nM in the series with L1210 cells [1] (read-out: IC50, inhibition of L1210 cell viability, day 4); 6000 nM and ~6000 nM in the series on L1210 cells [2] (90 min drug + 30 min pulse-labeling (2 h), read-out: IC50, inhibition of DNA synthesis in L1210 cells). The “% inhibition of DNA synthesis” value was found to be 69% with L1210 cells [2] (10 μM TT2, 60-min preincubation) and 97% with L1210 cells [2] (25 μM TT2, 60-min preincubation). Also, the “effect on DNA synthesis” value with L1210 cells [2] (25 μM TT2, 2-h treatment) is “totally inhibited”. Moreover, the “concentration at which the drug becomes effective against DNA synthesis” value in the series on L1210 cells [2] is listed as “greater than 1.6 μM”. In addition, in the series on L1210 cells [2] (10 and 25 μM TT2 or 25 μM H10, 60-min preincubation), the “reversibility of the inhibition of DNA synthesis upon drug removal” value was “irreversible”. The “times TT2 inhibits DNA, RNA and protein syntheses less effectively than DAU” value in the series on L1210 cells [2] (L1210, after 2-3 h, IC50 values compared) is 3-6 times.
`COC(=O)C1=C(C(=O)OC)C[C@H]2C(=O)C3=C(C(=O)[C@H]2C1)C1C2=C(C(=O)[C@H]4CC(C(=O)OC)=C(C(=O)OC)C[C@H]4C2=O)C3c2ccccc21` [TT4, (4aS*,7aR*,11aS*,14aR*)-Tetramethyl 1,4,4a,5,6,7,7a,8,11,11a,12,13,14,14a-tetradecahydro-5,7,12,14-tetraoxo-6,13-[1′,2′]benzenopentacene-2,3,9,10-tetracarboxylate]: the “inhibitory effect on L1210 cell viability” value with L1210 cells [1] was “inactive”. Moreover, the “effect on DNA synthesis” value in the series with L1210 cells [2] (7 μM, 2 h) is reported as “alter neither”.
Take `COC1=C(Br)C(=O)C2=C(C1=O)C1C3=C(C(=O)C=C(N(C)C)C3=O)C2c2ccccc21` (stereo not drawn) [TT16, 2-Bromo-3-methoxy-6-(dimethylamino)-9,10-dihydro-9,10-[1′,2′]benzenoanthracene-1,4,5,8-tetraone]: the IC50 with L1210 cells [1] (setting [3]) amounted to 300 nM. Also, the “potency on DNA synthesis compared with TT2” value in the series with L1210 cells [2] (FIG. 13) was “as potent as TT2”.
On to `COc1cccc2c1C(=O)c1c(O)c3c(c(O)c1C2=O)C[C@@](O)(C(C)=O)C[C@@H]3O[C@H]1C[C@H](N)[C@H](O)[C@H](C)O1` [DAU, daunomycin, reference compound], for which, in the series on L1210 cells [1], the “times DAU is more cytotoxic than TT2” value is reported as “about 3.5 times”. The cytotoxicity at 0.041 µM in the series on L1210 cells [1] (Mus musculus, L1210, 48 h) is 32%; in the series with L1210 cells [1] (Mus musculus, L1210, 96 h), 65%. Besides, the IC50 was found to be 70 nM in the series with L1210 cells [1] (Mus musculus, L1210, 48 h, read-out: IC50, inhibition of L1210 cell viability); 41 nM with L1210 cells [1] (Mus musculus, L1210, 96 h, read-out: IC50 (concentration inhibiting by 50% the viability of L1210 leukemic cells)); 30 nM in the series on L1210 cells [1] (Mus musculus, L1210, 96 h, read-out: IC50, inhibition of L1210 cell viability). In addition, the “concentration at which the drug becomes effective against DNA synthesis” value with L1210 cells [2] stood at 0.256 µM. Moreover, the “times DAU prevents DNA synthesis more effectively than TT2” value with L1210 cells [2] (L1210, from IC50 values) is listed as “about 6 times”.
